Reference: patent publication US8293786B2 (Alltranz Inc., priority 2007, dated 2012)

Columns and labels:
[1] = Plasma stability of cannabidiol prodrugs (bioconversion to parent drug); format: in vitro ADME; conditions: Table 20, di-prodrug in plasma; for % mono-prodrug at time (h): mono-prodrug formed
Method: An approximated 1 mg/mL stock solution of each prodrug was prepared in 100 μL of ethanol and 900 μL of acetonitrile. Ten (10) μL of stock was spiked into 1 mL of plasma and vortexed. The samples were kept sealed in an amber vial and samples were obtained to analyze for bioconversion to parent drug.

human abdominal skin = assay: In vitro human skin permeation and skin disposition, flow-through diffusion cells (Example 1); format: in vitro ADME
Method: Flow through diffusion cells were used for the permeation studies. HEPES-buffered Hanks' balanced salts containing 40% (polyethylene glycol) PEG 400 with gentamicin was used for the receiver compartment. Donor solution was comprised of either 100% propylene glycol (PG) solution or a rubbed in gel formulation. […] Drug accumulation in the skin after a 24 or 36 h diffusion experiment was determined as μmol/g wet tissue weight.
The skin samples used in the following experiments were obtained from abdominal reduction surgery and dermatomed to a thickness of approximately 200 μm. The skin samples used herein were frozen at −20° C. for less than six months.
1 L of receiver fluid was prepared by measuring 1 L of nanopure water into a graduated cylinder. 90% of the water was added to an Erlenmeyer flask. Hanks' salts (1 bottle) were added to the water along with 5.96 g of HEPES and 0.35 g of sodium bicarbonate. The pH of the solution was adjusted with 1 N sodium hydroxide solution to pH 7.4. The remaining water was added and the receiver fluid was filtered through a 0.2μ filter (Millipore, Billerica, Mass.). 50 mg of gentamicin was added to the filtered receiver fluid and 400 mL of the receiver fluid was removed and replaced with 400 mL of PEG 400.
Two different formulations were used for charging the donor compartment. Drugs were made up in either 100% PG or a gel formulation. For the PG solution, approximately 50-120 mg of the appropriate drug was weighed into a glass silanized culture tube. The gel formulation resulted from the mixing of absolute ethanol, nanopure water, IPM, Carbopol® 980, 0.1 N aqueous sodium hydroxide solution and the respective drug.
Dermatomed skin harvested from abdominoplasty, stored at −20° C., was used for the experiments. A PermeGear flow-through (In-Line, Riegelsville, Pa.) diffusion cell system was used for the skin permeation studies.
Diffusion cells were kept at 32° C. with a circulating water bath. Human epidermal skin was arranged in the diffusion cell with stratum corneum (upper layer of skin) facing the donor compartment. Permeation area of the skin was 0.95 cm^2. Data was collected from a human skin donor with three to four diffusion cells per treatment.
Receiver solution was HEPES-buffered Hanks' balanced salts with gentamicin containing 40% PEG 400 at a pH of 7.4 and flow rate was adjusted to 0.8 mL/h. Each cell was charged with 0.050 mL of the respective drug formulation (donor solution) or with 0.035 mL of gel formulation which was rubbed into the skin for 15 sec with a Teflon coated rod. The formulation was applied to ensure complete coverage. Diffusion cells were covered with a cap for the duration of the study.
Samples were collected into scintillation vials in 3 h increments for either 24 h or 36 h. All the samples were stored at 4° C. until extracted. An aliquot (0.5 mL) of the diffusion sample was placed into a silanized HPLC vial and 0.5 mL of acetonitrile was added to the sample, capped and vortexed.
At the end of the experiment, the skin tissue was removed from the diffusion cell, rinsed with nanopure water, and blotted dry with a paper towel. The skin was tape stripped twice using book tape (Scotch™, 3M, St. Paul, Minn.) to remove drug formulation adhering to the tissue surface. The area of skin in contact with the drug was cut out, chopped up and placed in a pre-weighed scintillation vial. Ten mL of acetonitrile was added to the vial and drug was extracted from the skin by shaking at room temperature overnight. The following day a 0.1 mL aliquot was removed and diluted with an additional 0.9 mL of acetonitrile. The diluted sample was added to the silanized HPLC vial for analysis.
At the end of the experiment, a 0.01 mL aliquot of the PG donor solution was removed and added to a scintillation vial containing 10 mL of acetonitrile. The vials were vortexed and then sonicated for 15 min. An aliquot of 1 mL was removed and transferred into a silanized HPLC vial for analysis.

[2] = Table 3, in propylene glycol, prodrug applied

C=C(C)[C@@H]1CCC(C)=C[C@H]1c1c(OC(=O)CCN(C)C)cc(CCCCC)cc1OC(=O)CCN(C)C [ALL00101, CBD bis(3-(dimethylamino)propionate)]
% mono-prodrug at time (h) ([1]; 1 h): 22%
% mono-prodrug at time (h) ([1]; 20 h): 11%
% Di-prodrug at time (h) ([1]; 0 h): 100%
% Di-prodrug at time (h) ([1]; 1 h): 75%
% Di-prodrug at time (h) ([1]; 20 h): 1%
flux enhancement (in words) (human abdominal skin; Example 1): No flux enhancement
form in which the prodrug permeated through the human skin (human abdominal skin; Example 1): permeated through the human skin as cannabidiol
found in the skin disposition (tissue) samples (human abdominal skin; Example 1): Both cannabidiol and intact prodrug were found
intact prodrug in the diffusion samples (receiver samples) (human abdominal skin; Example 1): No intact prodrug was found
total cannabidiol in the skin compared to cannabidiol (human abdominal skin; Example 1): higher
24 h cumulative amt (human abdominal skin; [2]): 11.0 ± 0.1 nmol
Flux (human abdominal skin; [2]): 1.0 ± 0.4 nmol/cm^2/h
Lag time (human abdominal skin; [2]): 11.7 ± 5.1 h
24 h skin conc (human abdominal skin; Table 3, in propylene glycol, prodrug applied, found in skin as CBD): 17.4 ± 4.3 (CBD) μmol/g
24 h skin conc (human abdominal skin; Table 3, in propylene glycol, prodrug applied, found in skin as PD (prodrug)): 29.2 ± 7.6 (PD) μmol/g
